Measured values from patent US4305940A, “Benzamides with local anaesthetic and antiarrhythmic activity, salts, and method of preparation thereof and pharmaceutical compositions therefrom” (B.B.R. Boehringer Biochemia Robin S.p.A., priority 1979, dated 1981).

Legend:
[1] = system: reflux of contraction of the lower limbs (lumbar plexus); test: Anaesthesia by conduction (lumbar plexus); format: in vivo, frogs; settings: for Conduction anaesthesia DL50/t' / Conduction anaesthesia 1/t'max. (c = 1%) with respect to lidocaine: c = 1%; for Conduction anaesthesia DL50/t': DL50 i.p.; for Conduction anaesthesia 1/t'max. (c = 1%) with respect to lidocaine / Conduction anaesthesia DL50/t' relative to lidocaine: lidocaine = 1
Excerpt: Anaesthesia by conduction has been determined on frogs according to the method of E. Bulbring and I. Wajda (Journal Pharmacol. Exper. Ther., 85, 78, 1945). The compounds dissolved in physiological saline solution are introduced into the cavity obtained by a transversal incision in the abdomen and separating the viscera in order to expose the lumbar plexus. The period of time necessary to eliminate the reflux of contraction of the lower limbs stimulated by immersion of both posterior legs into hydrochloric acid of increasing concentration between 0.05-0.1-0.2 N for a period not in excess of ten seconds, at intervals of one minute is determined. The extent of anaesthesia of conduction has been determined by measuring the period of time required for each compound in three different concentrations, 0.2%-0.5%-1.0% in order to abolish the reflex of contraction with the concentration of hydrochloric acid indicated hereinabove.

[2] = system: response to skin puncture; test: Anaesthesia by infiltration (subcutaneous, back puncture); format: in vivo, guinea pigs; settings: for Infiltration anaesthesia DL50/CE50: analogous to therapeutic index, DL50 i.p.; for Infiltration anaesthesia CE50: concentration in percent achieving 50% of total responses, hydrochloride salts; for Infiltration anaesthesia DL50/CE50 relative to lidocaine / Infiltration anaesthesia activity with respect to lidocaine: lidocaine = 1
Method: The anaesthesia by infiltration has been determined in guinea pigs according to the method of E. Bulbring and I. Wajda, (Journal of Pharmacol. Exper. Ther. 85, 78, 1945). In each experiment, four doses of the substance in 0.25 cc of physiological saline solution is injected subcutaneously on the back after removal of hair. After five minutes, each animal is punctured six times at intervals of […].
The test was repeated every five minutes for a period of 30 minutes. The extent of anaesthesia by infiltration was measured quantitatively by determining the sum of the instances in which the animal remained immobile during the thirty minute period on 36 possible blinks.

[3] = system: corneal reflux; test: Surface anaesthesia (corneal reflux, conjunctival sac); settings: for Surface anaesthesia DL50/CE50: analogous to therapeutic index, DL50 i.p.; for Surface anaesthesia CE50: concentration in percent achieving 50% of total responses, pH 7 saline, hydrochloride salts; for Surface anaesthesia activity with respect to lidocaine: lidocaine = 1
Method: (§1) The data reported hereinbelow relate in every instance to the hydrochloride salts of the individual compounds.
The surface anaesthesia has been determined in rabbits according to the method of M. R. A. Change and H. Lobstein (J. Pharmacol. Exper. Ther., 82, 203, 1944). The compounds dissolved in physiological saline solution of pH 7 were injected into the conjunctival sac and the corneal reflux was induced with the brush of Frey six times at intervals of five minutes for a total period of 40 minutes.

[4] = system: Swiss rats; test: in vivo; settings: lidocaine = 1
Excerpt: (§2) The behavior of the animals has then been followed for a period of five days. The DL50 has been determined according to the method of I. T. Litchfield and F. Wilcoxon, (J. Pharmacol. Exper. Ther., 96, 99, 1949). The compound numbers in Table II correspond to the numbers in Table I.

[5] = in vivo; settings: rat, in vivo, ip; 5 days; hydrochloride salts; range in parentheses; read-out: DL50 i.p.
Excerpt: as §2

[6] = system: aconitine-induced ventricular arrhythmia; test: Anti-arrhythmic activity, aconitine infusion; format: in vivo, Wistar rats; settings: for Aconitine i.v. necessary to induce ventricular arrhythmia: 3 min before aconitine 10 mcg/kg/min; for Anti-arrhythmic activity compared with lidocaine: times more active than lidocaine; for Anti-arrhythmic activity compared with quinidine: times more active than quinidine
Method: as §1
This determination has been made in Wistar rats, anaesthetized with ethylurethane, (1 g/kg i.p.), according to the method of B. Vargaftig and J. L. Coigner (European Journal Pharmacology, 6, 49, 1969). The compounds dissolved in physiological saline solution, are injected intravenously three minutes prior to the infusion of aconitine, (10 mcg/kg/min.). The extent of anti-arrhythmic activity is determined quantitatively by determining the amount of aconitine necessary to induce ventricular arrhythmia.

**Q.** With `CCN(CC)Cc1cccc(C(=O)Nc2c(C)cccc2C)c1` [Compound 2] as the compound, how does the “Conduction anaesthesia DL50/t'” value [1] read?
**A.** 67

**Q.** What about the “Conduction anaesthesia 1/t'max. (c = 1%) with respect to lidocaine” value (shortened to “Conduction anaesthesia 1/t'max. (c = 1%)”) [1] of the same compound?
**A.** 11.1

**Q.** And the “Conduction anaesthesia DL50/t' relative to lidocaine” value [1]?
**A.** 5.15

**Q.** And the “Infiltration anaesthesia DL50/CE50” value [2]?
**A.** 291

**Q.** And the “Infiltration anaesthesia CE50” value [2]?
**A.** 0.23%

**Q.** And the “Infiltration anaesthesia DL50/CE50 relative to lidocaine” value [2]?
**A.** 1.54

**Q.** And the “Infiltration anaesthesia activity with respect to lidocaine” value (from here on “Infiltration anaesthesia activity”) [2]?
**A.** 3.26

**Q.** What about the “Surface anaesthesia DL50/CE50” value [3] of the same compound?
**A.** 163

**Q.** And the “Surface anaesthesia CE50” value [3]?
**A.** 0.41%

**Q.** And the “Surface anaesthesia activity with respect to lidocaine” value (from here on “Surface anaesthesia activity”) [3]?
**A.** 5.60

**Q.** What about the “DL50 i.p. relative to lidocaine” value [4] of the same compound?
**A.** 0.47

**Q.** What about the LD50 at 120 h [5] of the same compound?
**A.** 67 mg/kg

**Q.** And the “Aconitine i.v. necessary to induce ventricular arrhythmia” value (“Aconitine i.v. necessary” for short) ([6]; 1.0 mg/kg i.v.)?
**A.** 43 ± 8 µg/kg

**Q.** And the “Aconitine i.v. necessary” value ([6]; 3.0 mg/kg i.v.)?
**A.** 77 ± 9 µg/kg

**Q.** And the “Aconitine i.v. necessary” value ([6]; 6.0 mg/kg i.v.)?
**A.** 82 ± 9 µg/kg

**Q.** Which “Conduction anaesthesia DL50/t'” value [1] does the source give for `CCN(CC)Cc1ccccc1C(=O)Nc1c(C)cccc1C` [Compound 1, 2,6-Dimethylanilide of 2-diethylaminomethylbenzoic acid] here?
**A.** 6

**Q.** And the “Conduction anaesthesia 1/t'max. (c = 1%)” value [1]?
**A.** 3.6

**Q.** And the “Conduction anaesthesia DL50/t' relative to lidocaine” value [1]?
**A.** 0.46

**Q.** And the “Infiltration anaesthesia DL50/CE50” value [2]?
**A.** 69

**Q.** What about the “Infiltration anaesthesia CE50” value [2] of the same compound?
**A.** 0.25%

**Q.** And the “Infiltration anaesthesia DL50/CE50 relative to lidocaine” value [2]?
**A.** 0.36

**Q.** And the “Infiltration anaesthesia activity” value [2]?
**A.** 3.00

**Q.** What about the “Surface anaesthesia DL50/CE50” value [3] of the same compound?
**A.** 34

**Q.** And the “Surface anaesthesia CE50” value [3]?
**A.** 0.50%

**Q.** What about the “Surface anaesthesia activity” value [3] of the same compound?
**A.** 4.60

**Q.** And the “DL50 i.p. relative to lidocaine” value [4]?
**A.** 0.12

**Q.** What about the LD50 at 120 h [5] of the same compound?
**A.** 17.2 mg/kg

**Q.** And the “Aconitine i.v. necessary” value ([6]; 0.6 mg/kg i.v.)?
**A.** 50 ± 5 µg/kg

**Q.** What about the “Aconitine i.v. necessary” value ([6]; 1.0 mg/kg i.v.) of the same compound?
**A.** 67 ± 8 µg/kg

**Q.** And the “Aconitine i.v. necessary” value ([6]; 3.0 mg/kg i.v.)?
**A.** 69 ± 8 µg/kg

**Q.** What about the “Anti-arrhythmic activity compared with lidocaine” value [6] of the same compound?
**A.** at least twenty times more active than lidocaine

**Q.** What about the “Anti-arrhythmic activity compared with quinidine” value [6] of the same compound?
**A.** at least ten times more active than quinidine

**Q.** With `CCN(CC)Cc1ccccc1C(=O)Nc1c(C)cccc1C(=O)OC` [Compound 14] as the compound, how does the “Conduction anaesthesia DL50/t'” value [1] read?
**A.** 5

**Q.** What about the “Conduction anaesthesia 1/t'max. (c = 1%)” value [1] of the same compound?
**A.** 2.2

**Q.** What about the “Conduction anaesthesia DL50/t' relative to lidocaine” value [1] of the same compound?
**A.** 0.38

**Q.** And the “Infiltration anaesthesia DL50/CE50” value [2]?
**A.** 57

**Q.** What about the “Infiltration anaesthesia CE50” value [2] of the same compound?
**A.** 0.43%

**Q.** And the “Infiltration anaesthesia DL50/CE50 relative to lidocaine” value [2]?
**A.** 0.30

**Q.** And the “Infiltration anaesthesia activity” value [2]?
**A.** 1.74

**Q.** What about the “Surface anaesthesia DL50/CE50” value [3] of the same compound?
**A.** 60

**Q.** And the “Surface anaesthesia CE50” value [3]?
**A.** 0.41%

**Q.** And the “Surface anaesthesia activity” value [3]?
**A.** 5.61

**Q.** And the “DL50 i.p. relative to lidocaine” value [4]?
**A.** 0.17

**Q.** What about the LD50 at 120 h [5] of the same compound?
**A.** 24.7 mg/kg

**Q.** And the “Aconitine i.v. necessary” value ([6]; 0.6 mg/kg i.v.)?
**A.** 45 ± 8 µg/kg

**Q.** And the “Aconitine i.v. necessary” value ([6]; 1.0 mg/kg i.v.)?
**A.** 60 ± 7 µg/kg

**Q.** And the “Aconitine i.v. necessary” value ([6]; 3.0 mg/kg i.v.)?
**A.** 81 ± 7 µg/kg

**Q.** What about the “Anti-arrhythmic activity compared with lidocaine” value [6] of the same compound?
**A.** at least twenty times more active than lidocaine

**Q.** What about the “Anti-arrhythmic activity compared with quinidine” value [6] of the same compound?
**A.** at least ten times more active than quinidine
